This is an account of results in patent US5789448A, “Benzoylethylene derivative” (Mitsubishi Chemical Corporation, priority 1994, dated 1998).

pIC50: −log10 of the molar value. Read-outs that look alike come from different tables or passages of the source.

Experiment [1] deals with T1, human EGF (epithelial cell growth factor) receptor tyrosine kinase (Homo sapiens, UniProt P00533).
T1 construct: to obtain an A431 cell membrane fraction, and this fraction was provided for measurement as a partially purified EGF receptor; endogenous in cells; host or cells: A431 (human squamous cell carcinoma), membrane fraction
T1 sequence (P00533 25-1210): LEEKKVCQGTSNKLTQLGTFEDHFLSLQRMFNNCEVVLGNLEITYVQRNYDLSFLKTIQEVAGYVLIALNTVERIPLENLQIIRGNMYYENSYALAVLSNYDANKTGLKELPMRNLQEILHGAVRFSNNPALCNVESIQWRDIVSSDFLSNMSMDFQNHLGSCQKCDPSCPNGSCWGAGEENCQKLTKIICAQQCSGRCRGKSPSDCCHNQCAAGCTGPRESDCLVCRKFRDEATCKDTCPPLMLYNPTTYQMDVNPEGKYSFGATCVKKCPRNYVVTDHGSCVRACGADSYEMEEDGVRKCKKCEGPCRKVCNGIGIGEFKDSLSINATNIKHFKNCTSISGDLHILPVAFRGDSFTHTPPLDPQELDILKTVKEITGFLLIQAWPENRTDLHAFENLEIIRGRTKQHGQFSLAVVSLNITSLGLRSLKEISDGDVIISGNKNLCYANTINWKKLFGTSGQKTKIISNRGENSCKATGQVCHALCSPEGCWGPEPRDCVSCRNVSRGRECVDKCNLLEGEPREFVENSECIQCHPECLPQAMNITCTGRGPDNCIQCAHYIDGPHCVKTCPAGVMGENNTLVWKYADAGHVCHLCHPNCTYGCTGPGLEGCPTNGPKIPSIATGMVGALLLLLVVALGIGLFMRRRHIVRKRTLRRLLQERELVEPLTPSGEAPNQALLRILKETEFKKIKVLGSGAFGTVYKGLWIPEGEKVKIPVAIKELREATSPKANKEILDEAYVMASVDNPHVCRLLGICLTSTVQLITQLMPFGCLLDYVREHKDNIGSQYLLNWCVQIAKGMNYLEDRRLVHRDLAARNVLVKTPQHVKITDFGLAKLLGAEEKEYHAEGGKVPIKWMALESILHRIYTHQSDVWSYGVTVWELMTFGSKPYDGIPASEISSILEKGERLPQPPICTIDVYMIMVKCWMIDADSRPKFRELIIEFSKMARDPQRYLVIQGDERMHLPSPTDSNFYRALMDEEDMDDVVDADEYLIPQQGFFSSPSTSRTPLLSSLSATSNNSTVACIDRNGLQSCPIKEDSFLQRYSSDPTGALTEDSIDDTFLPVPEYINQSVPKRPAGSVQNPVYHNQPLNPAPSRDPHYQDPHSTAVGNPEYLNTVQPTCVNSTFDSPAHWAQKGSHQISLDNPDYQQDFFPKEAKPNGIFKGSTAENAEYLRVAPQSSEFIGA
The experiment is described as follows: Tyrosine kinase inhibiting activity (EGF receptor partially purified from A431 cell membrane fraction, RR-SRC peptide substrate, gamma-32P-ATP). The class given is biochemical. The settings on record: 10 μM ATP, 1% DMSO, in ice for 30 minutes. On the procedure: (§1) In order to evaluate the tyrosine kinase inhibiting activity and the cancer cell growth inhibiting activity of the compound of the present invention, tests were carried out in a partially purified human EGF ([…]) receptor tyrosine kinase activity measuring system and a cell culture system using human cancerous cells.
(Tyrosine kinase inhibiting activity)
The tyrosine kinase inhibiting activity was measured by using an EGF receptor which was partially purified from an A431 cell line derived from human squamous cell carcinoma and by improving the tyrosine kinase activity measurement method described in Linda J. Pike et al., Proceedings of the National Academy of Sciences of the U.S.A. 79, 1443 (1982).
The detailed method is as described below.
A431 cells were cultured in a Dulbecco modified Eagle's medium (DMEM) containing 10% fetal calf serum (FCS), at 37° C. under 5% carbonic acid gas. The cells were homogenized in a solution containing 10 mM N-2-hydroxyethylpiperazino-N'-2-ethanesulfonic acid (Hepes) buffer (pH 7.4), 0.25M saccharose and 0.1 mM EDTA and then centrifuged at 3000 g for 5 minutes. Further, a supernatant thereof was centrifuged at 10000× g for 30 minutes to obtain an A431 cell membrane fraction, and this fraction was provided for measurement as a partially purified EGF receptor which was an enzyme source.
To a reaction mixture of the above-mentioned A431 cell membrane fraction (10 to 15 μg), a 30 mM Hepes buffer (pH 7.7), 2 mM MnCl2, 50 μM Na3 VO4 and a sample dissolved in dimethylsulfoxide (DMSO) (final concentration: 1% DMSO) was added 100 ng of EGF, and then 75 μg of a synthetic substrate RR-SRC peptide (a peptide described in Sequence No. 1) and 10 μM gamma-^32 P-adenosine triphosphoric acid (37 to 42 KBq) were added thereto to start a reaction.
The volume at that time was 60 μl.
The reaction was carried out in ice for 30 minutes, and the reaction was terminated by adding 6 μl of 10 mg/ml bovine serum albumin and 25 μl of 20% trichloroacetic acid. The reaction mixture was left to stand in ice for 30 minutes.
Next, after the mixture was centrifuged at 5000× g for 2 minutes, 40 μl of the supernatant was sampled and adsorbed to P81 phosphocellulose paper.
This was dipped in a 30% acetic acid solution for 15 minutes to fix, washed by dipping in a 15% acetic acid solution for 15 minutes (washing was repeated four times) and measured the count of ^32 P attached to P81 phosphocellulose paper by a liquid scintillation counter, and this value was defined as A.
At the same time, the counts of a reaction in which the sample tested was not added and a reaction in which both the sample and EGF were not added were measured and were defined as B and C, respectively.
The tyrosine kinase inhibiting rate is determined by the following formula.
Inhibiting rate (%)=100-{(B-A)/(B-C)}×100
From the inhibiting rate obtained by changing the addition concentration of the sample, an IC50 value (50% inhibiting concentration) was calculated.

Experiment [2] concerns KB cells of human rhinopharyngeal cancer. In words: Cancer cell growth inhibiting activity (KB cells, MTT). The class given is cell-based. The note with it: read-out: Cancer cell growth inhibiting activity (IC50). On the procedure: as §1
(Cancer cell growth inhibiting activity)
KB cells of human rhinopharyngeal cancer retain EGF receptor on cellular surfaces thereof excessively.
By using these KB cells, investigation of the effect of a sample on growth of cultured cancer cells was carried out by the following method.
2.5×10^3 cells/well of KB cells were sowed on a 96 well dish and cultured in a DMEM:F12 (1:1) medium containing 10% FCS, 50 U/ml penicillin and 50 μg/ml of streptomycin, under conditions of 37° C. and 5% carbonic acid gas for 1 day. Thereafter, a sample dissolved in DMSO was added to the medium (DMSO final concentration: <0.1%) and cultured under the above conditions for 3 days. The sample and the medium were replaced every 24 hours.
The count of the number of living cells was determined by calorimetric quantitation at two wavelengths of 540 nm and 660 nm using a MTT reagent by referring to the measurement method described in Michael C.
At the same time, the count of the number of living cells when the sample was not added was also measured, and the value was defined as b.
The cell growth inhibiting rate was determined by the following formula.
Inhibiting rate (%)=(b-a)/b×100

The mark [3] stands for this setting: KB cells, 3 days, sample and medium replaced every 24 hours, MTT.

For orientation: pIC50 means −log10 of the IC50, conventionally taken in molar units. With `COc1cc(C(=O)C=C(C(C)(C)N2CCCCC2)S(=O)(=O)c2ccccc2)cc2c1OCO2` [compound 290], the pIC50 is 5.30 in experiment [1] and 6.08 in experiment [2] (KB).

As for `COc1ccc(C(=O)C=C(CN(C(C)C)C(C)C)S(=O)(=O)c2ccccc2)cc1OC` [compound 335], the pIC50 in experiment [1] is 4.55; in experiment [2] (KB), 5.51.

Regarding `CCN(CC)C(C)(C)C(=CC(=O)c1ccc(OC)c(OC)c1)S(=O)(=O)c1ccc([N+](=O)[O-])cc1` [compound 350], the pIC50 in experiment [1] is 5.85; in experiment [2] (KB) it was 6.24.

For `COC(=O)C=CC(=O)c1ccc(OC)c(OC)c1` [compound 26], the pIC50 in experiment [1] is 6.07; in experiment [2] (KB), 5.72.

Regarding `COc1ccc(C(=O)C=C(C(C)(C)N2CCC(C)CC2)S(=O)(=O)c2ccccc2)cc1OC` [compound 327], the pIC50 is 4.56 in experiment [1] and 5.30 in experiment [2] (setting [3]).

On to `CCN(CC)C(C)(C)C(=CC(=O)c1ccc(OC)c(OC)c1)S(=O)(=O)c1cccs1` [compound 352], for which the negative-log IC50 (pIC50) in experiment [1] was 6.33; in experiment [2] (KB), 6.20.

As to `CCN(CC)C(C)(C)C(C#N)=CC(=O)c1ccc(OC)c(OC)c1` [compound 349], the negative logarithm of the IC50 (pIC50) is 5.24 in experiment [1] and 5.70 in experiment [2] (setting [3]).

For the compound `CCN(CC)C(C)(C)C(=CC(=O)c1ccc(OC)c(OC)c1)S(=O)(=O)c1ccccc1` [compound 278], the negative logarithm of the IC50 (pIC50) is 5.77 in experiment [1] and 6.02 in experiment [2] (KB).

Take `COC(=O)C=CC(=O)c1ccc(OC)cc1` [compound 29]: the pIC50 in experiment [1] was 5.03; in experiment [2] (KB), 5.41.

For the compound `COc1ccc(C(=O)C=CCN2CCCCC2)cc1OC` [compound 97], the pIC50 in experiment [1] was 5.09; in experiment [2] (KB) it was 5.59.

Take `COc1ccc(C(=O)C=CC#N)cc1OC` [compound 5]: the pIC50 in experiment [1] is 6.47; in experiment [2] (KB) it was 6.21.

With `CC(C(=O)Nc1ccccc1)=C(C)C(=O)c1ccccc1` [compound 253], the pIC50 in experiment [1] was 4.42; in experiment [2] (KB), 6.38.

For the compound `CCN(CC)C(C)(C)C(=CC(=O)c1ccc(OC)c(OC)c1)S(=O)(=O)c1ccc(C)cc1` [compound 293], the pIC50 was 5.96 in experiment [1] and 6.64 in experiment [2] (KB).
